This is an account of results in ChEMBL document CHEMBL5385942, “C3-Symmetric ligands in drug design: An overview of the challenges and opportunities ahead” (Bioorg Med Chem Lett, 2024).

Each structure is given as a SMILES string. Where “and” joins values, the source holds several entries; their conditions need not be identical. Equal values may be shown once.

Assay [1] concerns Bacillus subtilis. The experiment in a line: Antimicrobial activity against Bacillus subtilis MTCC 441 assessed as zone of inhibition by […]. The format is functional.
Assay [2] has as its system Escherichia coli. The experiment in a line: Antimicrobial activity against Escherichia coli ATCC 25922 assessed as zone of inhibition by […]. The format is functional.
The test system of assay [3] is Micrococcus luteus. Briefly: Antimicrobial activity against Micrococcus luteus ATCC 9341 assessed as zone of inhibition by […]. The assay is classed as functional.
For assay [4], the system named is Pseudomonas aeruginosa. Briefly: Antimicrobial activity against Pseudomonas aeruginosa MTCC 741 assessed as zone of inhibition by […]. The format is functional, organism-based.
Assay [5] concerns HeLa. The experiment in a line: Cytotoxicity against human HeLa cells assessed as inhibition of cell growth incubated for 24 hrs by MTT assay. The format is functional, cell-based.
A short description of assay [6]: Growth inhibition of human NCI cells. The format is functional.
In assay [7] the test system is MDA-MB-468. The experiment in a line: Antiproliferative activity against human MDA-MB-468 cells assessed as inhibition of cell growth. The assay is classed as functional, cell-based.
In assay [8] the test system is Staphylococcus aureus. Briefly: Antimicrobial activity against Staphylococcus aureus MTCC 96 assessed as zone of inhibition by […]. The assay is classed as functional.
Assay [9] has as its system LNCaP. Briefly: Antiproliferative activity against human LNCaP cells assessed as inhibition of cell growth incubated for 24 hrs by SRB assay. The format is functional, cell-based.
For assay [10], the system named is T47D. The experiment in a line: Antiproliferative activity against human T47D cells assessed as inhibition of cell growth incubated for 24 hrs by SRB assay. The assay is classed as functional, cell-based.
Assay [11] concerns Jurkat. Briefly: Antiproliferative activity against human Jurkat cells assessed as inhibition of cell growth incubated for 24 hrs by SRB assay. The assay is classed as functional, cell-based.
The nature of assay [12]: Antiproliferative activity against human SW707 cells assessed as inhibition of cell growth incubated for 24 hrs by SRB assay. The format is functional, cell-based. The following applies: SW707, 24 h.
The test system of assay [13] is MCF7. Briefly: Antiproliferative activity against human MCF7 cells assessed as inhibition of cell growth incubated for 24 hrs by SRB assay. The assay is classed as functional, cell-based. The following applies: MCF7, 24 h.
Assay [14] deals with A549. Briefly: Antiproliferative activity against human A549 cells assessed as inhibition of cell growth incubated for 24 hrs by SRB assay. The assay is classed as functional, cell-based. The following applies: A549, 24 h.
The test system of assay [15] is HepG2. The experiment in a line: Cytotoxicity against human HepG2 cells assessed as inhibition of cell growth incubated for 24 to 48 hrs by MTT assay. The format is functional, cell-based.
Assay [16] has as its system Human betaherpesvirus 5. The experiment in a line: Antiviral activity against HCMV infected in HFF cells assessed as reduction in viral replication. The format is functional, organism-based. The following applies: Human betaherpesvirus 5, HFF.

Take `O=C(/C=C/c1ccccc1)c1ccc(Oc2nc(Oc3ccc(C(=O)/C=C/c4ccccc4)cc3)nc(Oc3ccc(C(=O)/C=C/c4ccccc4)cc3)n2)cc1`: the results for the “inhibition zone (IZ)” value in [1], in assay [2] and in assay [3] were 7 mm, 6 mm and 7 mm, respectively.

For `O=C(/C=C/c1ccc([N+](=O)[O-])cc1)c1ccc(Oc2nc(Oc3ccc(C(=O)/C=C/c4ccc([N+](=O)[O-])cc4)cc3)nc(Oc3ccc(C(=O)/C=C/c4ccc([N+](=O)[O-])cc4)cc3)n2)cc1`, the inhibition zone (IZ) in assay [1] was determined as 7 mm; in assay [2], 6 mm; in assay [4], 7 mm; in [3] it was 7 mm.

Turning to `O=C1c2cccc3cccc(c23)C(=O)N1CCCn1c(CCN(CCc2nc3ccccc3n2CCCN2C(=O)c3cccc4cccc(c34)C2=O)CCc2nc3ccccc3n2CCCN2C(=O)c3cccc4cccc(c34)C2=O)nc2ccccc21`, in assay [5], the IC50 came to 150000 nM.

With `c1ccc(Nc2nc(Nc3ccccn3)nc(Nc3ccccn3)n2)nc1`, halving of growth in assay [6] (GI50) required 49800 nM.

Regarding `c1ccc(Sc2nc(Sc3ccccn3)nc(Sc3ccccn3)n2)nc1`, the IC50 in assay [7] was 216000 nM. In [6], the 50% growth inhibitory concentration (GI50) was 3170 nM.

In the case of `Cc1ccc(/C=C/C(=O)c2ccc(Oc3nc(Oc4ccc(C(=O)/C=C/c5ccc(C)cc5)cc4)nc(Oc4ccc(C(=O)/C=C/c5ccc(C)cc5)cc4)n3)cc2)cc1`, the “inhibition zone (IZ)” value came to 10 mm in assay [1], 11 mm in [3] and 7 mm in assay [8].

On to `c1ccc(Sc2nc(Sc3ccccc3)nc(Sc3ccccc3)n2)cc1`, for which, in [6], the GI50 was > 100000 nM.

As to `O=C(/C=C/c1ccc(Cl)cc1Cl)c1ccc(Oc2nc(Oc3ccc(C(=O)/C=C/c4ccc(Cl)cc4Cl)cc3)nc(Oc3ccc(C(=O)/C=C/c4ccc(Cl)cc4Cl)cc3)n2)cc1`, the “inhibition zone (IZ)” value was 7 mm and 8 mm in assay [1]; 7 mm and 10 mm in assay [3]; 10 mm and 7 mm in assay [8].

As to `NC(=S)N1N=C(c2ccc(Oc3nc(Oc4ccc(C5=NN(C(N)=S)C(c6cccc([N+](=O)[O-])c6)C5)cc4)nc(Oc4ccc(C5=NN(C(N)=S)C(c6cccc([N+](=O)[O-])c6)C5)cc4)n3)cc2)CC1c1cccc([N+](=O)[O-])c1` (stereo not given), the “inhibition zone (IZ)” value came to 13 mm in assay [1], 16 mm in assay [3] and 10 mm in assay [8].

For `ClCCCN1CCN(c2nc(N3CCN(CCCl)CC3)nc(N3CCN(CCCl)CC3)n2)CC1`, the IC50 in assay [9] turned out to be 620 nM; in [10], 620 nM; in [11], 620 nM; in [12], 620 nM; in assay [13], 18700 nM; in assay [14], 620 nM.

For `O=C(N/N=C\c1ccc(N(CCCl)CCCl)cc1)c1cc(C(=O)N/N=C\c2ccc(N(CCCl)CCCl)cc2)cc(C(=O)N/N=C/c2ccc(N(CCCl)CCCl)cc2)c1`, in [15], the IC50 worked out at 25 µmol.

Consider `NC(=S)N1N=C(c2ccc(Oc3nc(Oc4ccc(C5=NN(C(N)=S)C(c6ccccc6)C5)cc4)nc(Oc4ccc(C5=NN(C(N)=S)C(c6ccccc6)C5)cc4)n3)cc2)CC1c1ccccc1` (stereo not given), for which the “inhibition zone (IZ)” value in assay [1] amounted to 11 mm; in assay [3], 15 mm; in [8], 13 mm.

For `C[C@@H]1CCC2[C@@H](C)[C@H](OC(=O)CCC(=O)OCC(COC(=O)CCC(=O)O[C@@H]3O[C@@H]4O[C@]5(C)CC[C@H]6[C@H](C)CCC([C@H]3C)[C@@]46OO5)COC(=O)CCC(=O)O[C@@H]3O[C@@H]4O[C@]5(C)CC[C@H]6[C@H](C)CCC([C@H]3C)[C@@]46OO5)O[C@@H]3O[C@]4(C)CC[C@@H]1[C@@]23OO4` (stereo not given in full), the EC50 in [16] came out at 530 nM.

For `NC(=S)N1N=C(c2ccc(Oc3nc(Oc4ccc(C5=NN(C(N)=S)C(c6ccc(Cl)cc6)C5)cc4)nc(Oc4ccc(C5=NN(C(N)=S)C(c6ccc(Cl)cc6)C5)cc4)n3)cc2)CC1c1ccc(Cl)cc1` (stereo not given), the “inhibition zone (IZ)” value in assay [1] is reported as 10 mm; in assay [3], 18 mm; in assay [8], 11 mm.
